Activity calls are given as the source filed them. The rule behind the calls is not given here.
Assays:
MDA-MB-231 = test: Antiproliferation activity against human MDA-MB-231 cells measured after 72 hrs incubation by MTT assay; type: functional, cell-based; details: MDA-MB-231, 72 h
MIA PaCa-2 = test: Antiproliferation activity against human MIA PaCa-2 cells measured after 72 hrs incubation by MTT assay; type: functional, cell-based; details: MIA PaCa-2, 72 h
KB = test: Antiproliferation activity against human KB cells measured after 72 hrs incubation by MTT assay; type: functional, cell-based
MCF7 [1] = test: Antiproliferation activity against human MCF7 cells measured after 72 hrs incubation by MTT assay; type: functional, cell-based; details: MCF7, 72 h
NCI/ADR-RES = test: Antiproliferation activity against human MCF7/ADR cells measured after 72 hrs incubation by MTT assay; type: functional, cell-based
Tubulin (Homo sapiens) [2] = biological target: T1, Tubulin (Homo sapiens) (UniProt P68371+Q9H4B7+P0DPH7+P68366+Q13509+Q71U36+P04350+Q3ZCM7+P07437+P68363+Q9BQE3+Q6PEY2+Q13885+Q9BVA1+Q9BUF5); test: In vitro inhibition of microtubule (unknown origin) assembly at 10 uM; type: protein-complex assay
Tubulin (Homo sapiens) [3] = biological target: T1, Tubulin (Homo sapiens); test: Inhibition of microtubule assembly in human MCF7 cells assessed as disrupted microtubule network at 50 uM measured after 24 hrs incubation by anti-alpha-tubulin antibody (green) and Hoechst 33342 (blue) stained nuclei were obtained under microscopy; type: cell-based
Tubulin (Homo sapiens) [4] = biological target: T1, Tubulin (Homo sapiens); test: Inhibition of microtubule assembly in human HepG2 cells assessed as disrupted microtubule network at 50 uM measured after 24 hrs incubation by anti-alpha-tubulin antibody (green) and Hoechst 33342 (blue) stained nuclei were obtained under microscopy; type: cell-based
[5] = biological target: Tubulin beta (Homo sapiens) (UniProt P68371+Q9H4B7+Q13509+P04350+Q3ZCM7+P07437+Q13885+Q9BVA1+Q9BUF5+A6NNZ2); test: Binding affinity to beta-tubulin colchicine binding site in human MCF7 cells assessed as inhibition of EBI-beta-tubulin adduct band formation preincubated for 2 hrs followed by EBI addition measured after 2 hrs by EBI competition based Western blotting analysis; type: cell-based; details: dose 12.5-100 nM
[6] = biological target: DNA topoisomerase 2-alpha (Homo sapiens) (UniProt P11388); test: Inhibition of human DNA topoisomerase 2 assessed as relaxation of supercoiled pBR322 DNA as substrate at 20 uM incubated for 30 mins by gel staining based electrophoresis analysis
Sequence of DNA topoisomerase 2-alpha (Homo sapiens) (P11388 whole entry): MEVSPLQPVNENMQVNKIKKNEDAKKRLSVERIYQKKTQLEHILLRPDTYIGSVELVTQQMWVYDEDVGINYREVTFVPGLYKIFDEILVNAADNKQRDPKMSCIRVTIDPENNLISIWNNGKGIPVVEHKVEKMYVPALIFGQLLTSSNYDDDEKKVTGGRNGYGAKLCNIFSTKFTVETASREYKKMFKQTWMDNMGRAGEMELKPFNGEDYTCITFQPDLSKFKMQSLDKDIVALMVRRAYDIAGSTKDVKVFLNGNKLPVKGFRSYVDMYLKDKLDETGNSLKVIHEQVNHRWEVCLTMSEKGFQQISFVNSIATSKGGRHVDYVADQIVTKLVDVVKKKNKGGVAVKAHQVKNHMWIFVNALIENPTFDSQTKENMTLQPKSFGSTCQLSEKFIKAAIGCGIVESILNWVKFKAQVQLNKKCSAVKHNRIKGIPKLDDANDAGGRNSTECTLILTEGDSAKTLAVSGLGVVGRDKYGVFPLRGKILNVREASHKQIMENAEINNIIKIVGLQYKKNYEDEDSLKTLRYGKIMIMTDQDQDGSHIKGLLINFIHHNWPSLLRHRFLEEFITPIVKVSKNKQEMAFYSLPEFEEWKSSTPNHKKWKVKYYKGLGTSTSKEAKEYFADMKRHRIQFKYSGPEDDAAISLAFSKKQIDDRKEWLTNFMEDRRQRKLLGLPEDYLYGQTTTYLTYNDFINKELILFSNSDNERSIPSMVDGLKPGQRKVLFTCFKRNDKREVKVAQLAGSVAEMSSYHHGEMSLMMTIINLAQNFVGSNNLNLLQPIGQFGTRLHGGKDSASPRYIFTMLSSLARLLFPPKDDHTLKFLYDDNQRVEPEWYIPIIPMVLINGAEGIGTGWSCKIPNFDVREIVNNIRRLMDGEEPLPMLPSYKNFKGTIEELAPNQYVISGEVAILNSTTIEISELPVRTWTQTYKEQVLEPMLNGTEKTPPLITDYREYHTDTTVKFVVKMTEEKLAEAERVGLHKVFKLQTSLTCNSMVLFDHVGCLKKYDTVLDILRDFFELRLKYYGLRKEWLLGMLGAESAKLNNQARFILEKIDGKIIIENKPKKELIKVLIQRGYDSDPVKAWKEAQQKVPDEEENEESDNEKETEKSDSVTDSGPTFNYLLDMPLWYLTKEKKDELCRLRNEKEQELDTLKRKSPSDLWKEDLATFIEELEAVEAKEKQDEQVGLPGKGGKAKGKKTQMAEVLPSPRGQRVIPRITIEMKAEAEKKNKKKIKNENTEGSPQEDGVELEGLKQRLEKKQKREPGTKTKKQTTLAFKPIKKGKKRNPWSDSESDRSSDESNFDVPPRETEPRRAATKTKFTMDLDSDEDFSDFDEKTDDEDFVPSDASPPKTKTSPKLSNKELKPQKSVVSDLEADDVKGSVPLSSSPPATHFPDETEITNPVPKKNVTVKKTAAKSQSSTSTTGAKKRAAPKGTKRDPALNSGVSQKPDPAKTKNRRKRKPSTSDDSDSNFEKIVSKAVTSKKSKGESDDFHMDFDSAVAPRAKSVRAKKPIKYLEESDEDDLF

MCF7 [7] = test: Induction of cell cycle arrest in human MCF7 cells assessed as accumulation of cells at G2/M phase at 4 nM measured after 24 hrs by flow cytometry (reference value: 22.84%); type: functional
MCF7 [8] = test: Induction of cell cycle arrest in human MCF7 cells assessed as accumulation of cells at G2/M phase at 25 nM measured after 24 hrs by flow cytometry (reference value: 22.84%); type: functional
MCF7 [9] = test: Induction of cell cycle arrest in human MCF7 cells assessed as accumulation of cells at G2/M phase at 500 nM measured after 24 hrs by flow cytometry (reference value: 22.84%); type: functional
MCF7 [10] = test: Induction of cell cycle arrest in human MCF7 cells assessed as accumulation of cells at G0/G1 phase at 25 nM measured after 24 hrs by flow cytometry (reference value: 61.73%); type: functional
MCF7 [11] = test: Induction of cell cycle arrest in human MCF7 cells assessed as accumulation of cells at G0/G1 phase at 100 nM measured after 24 hrs by flow cytometry (reference value: 61.73%); type: functional
MCF7 [12] = test: Induction of cell cycle arrest in human MCF7 cells assessed as accumulation of cells at G0/G1 phase at 500 nM measured after 24 hrs by flow cytometry (reference value: 61.73%); type: functional
MCF7 [13] = test: Induction of cell cycle arrest in human MCF7 cells assessed as increase in cyclin B1 protein expression at […] by Western blot analysis; type: functional, cell-based; details: dose lower 12.5 µM
MCF7 [14] = test: Induction of apoptosis in human MCF7 cells assessed as early apoptotic cells at 6.25 nM measured after 48 hrs by AnnexinV/PI double staining assays (reference value: 5.32%); type: functional
MCF7 [15] = test: Induction of apoptosis in human MCF7 cells assessed as viable cells at 6.25 nM measured after 48 hrs by AnnexinV/PI double staining assays (reference value: 91.20%); type: functional; details: read-out: Activity
MCF7 [16] = test: Induction of apoptosis in human MCF7 cells assessed as late apoptotic cells at 6.25 nM measured after 48 hrs by AnnexinV/PI double staining assays (reference value: 2.60%); type: functional
MCF7 [17] = test: Induction of apoptosis in human MCF7 cells assessed as necrotic cells at 6.25 nM measured after 48 hrs by AnnexinV/PI double staining assays (reference value: 0.89%); type: functional
MCF7 [18] = test: Induction of apoptosis in human MCF7 cells assessed as viable cells at 12.5 nM measured after 48 hrs by AnnexinV/PI double staining assays (reference value: 91.20%); type: functional; details: read-out: Activity
MCF7 [19] = test: Induction of apoptosis in human MCF7 cells assessed as necrotic cells at 12.5 nM measured after 48 hrs by AnnexinV/PI double staining assays (reference value: 0.89%); type: functional
MCF7 [20] = test: Induction of apoptosis in human MCF7 cells assessed as viable cells at 25 nM measured after 48 hrs by AnnexinV/PI double staining assays (reference value: 91.20%); type: functional; details: read-out: Activity
MCF7 [21] = test: Induction of apoptosis in human MCF7 cells assessed as early apoptotic cells at 25 nM measured after 48 hrs by AnnexinV/PI double staining assays (reference value: 5.32%); type: functional
MCF7 [22] = test: Induction of apoptosis in human MCF7 cells assessed as late apoptotic cells at 25 nM measured after 48 hrs by AnnexinV/PI double staining assays (reference value: 2.60%); type: functional
MCF7 [23] = test: Induction of apoptosis in human MCF7 cells assessed as necrotic cells at 25 nM measured after 48 hrs by AnnexinV/PI double staining assays (reference value: 0.89%); type: functional
MCF7 [24] = test: Induction of apoptosis in human MCF7 cells assessed as viable cells at 50 nM measured after 48 hrs by AnnexinV/PI double staining assays (reference value: 91.20%); type: functional; details: read-out: Activity
MCF7 [25] = test: Induction of apoptosis in human MCF7 cells assessed as early apoptotic cells at 50 nM measured after 48 hrs by AnnexinV/PI double staining assays (reference value: 5.32%); type: functional
MCF7 [26] = test: Induction of apoptosis in human MCF7 cells assessed as late apoptotic cells at 50 nM measured after 48 hrs by AnnexinV/PI double staining assays (reference value: 2.60%); type: functional
MCF7 [27] = test: Induction of apoptosis in human MCF7 cells assessed as necrotic cells at 50 nM measured after 48 hrs by AnnexinV/PI double staining assays (reference value: 0.89%); type: functional
MCF7 [28] = test: Induction of apoptosis in human MCF7 cells assessed as multinuclear cells at 5 nM measured after 24 hrs by fluorescent microscopy; type: functional
MCF7 [29] = test: Induction of apoptosis in human MCF7 cells assessed as karyolysis at 1 nM measured after 24 hrs by fluorescent microscopy; type: functional, cell-based
MCF7 [30] = test: Induction of apoptosis in human MCF7 cells assessed as karyopyknosis at 5 nM measured after 24 hrs by fluorescent microscopy; type: functional, cell-based
HMEC-1 = test: Angiogenic activity against human HMEC-1 cells assessed as decrease in vascular area measured after 48 hrs by Endothelial tube formation assay; type: functional, cell-based; details: dose 1-100 nM

SMILES: COc1cc(NS(=O)(=O)c2ccc3c(c2)c2ccc(N)cc2n3C)c(OC)cc1Cl
- IC50 (MDA-MB-231): 31.2 nM
- IC50 (MIA PaCa-2): 13.3 nM
- IC50 (KB): 9.45 nM
- IC50 (MCF7 [1]): 12.2 nM
- IC50 (NCI/ADR-RES): 1.86 nM
- inhibition (Tubulin (Homo sapiens) [2]): Active
- inhibition (Tubulin (Homo sapiens) [3]): Active
- inhibition (Tubulin (Homo sapiens) [4]): Active
- Activity [5]: Active
- inhibition [6]: inactive
- Activity (MCF7 [7]): 23.3%
- Activity (MCF7 [8]): 31.9%
- Activity (MCF7 [9]): 53.2%
- Activity (MCF7 [10]): 36.18%
- Activity (MCF7 [11]): 4.32%
- Activity (MCF7 [12]): 5.54%
- Activity (MCF7 [13]): Dose-Dependent Effect
- Activity (MCF7 [14]): 16.87%
- viability at 0.00625 µM (MCF7 [15]): 76.1%
- Activity (MCF7 [16]): 7.06%
- Activity (MCF7 [17]): 0.1%
- viability at 0.0125 µM (MCF7 [18]): 64.2%
- Activity (MCF7 [19]): 0.14%
- viability at 0.025 µM (MCF7 [20]): 39.3%
- Activity (MCF7 [21]): 46.14%
- Activity (MCF7 [22]): 14.03%
- Activity (MCF7 [23]): 0.51%
- viability at 0.05 µM (MCF7 [24]): 34.2%
- Activity (MCF7 [25]): 50.98%
- Activity (MCF7 [26]): 14.69%
- Activity (MCF7 [27]): 0.08%
- Activity (MCF7 [28]): Active
- Activity (MCF7 [29]): Active
- Activity (MCF7 [30]): Active
- Activity (HMEC-1): Dose-Dependent Effect
